Reference: patent publication US20150098997A1, “Methods and Compositions for Treating Attention Deficit Hyperactivity Disorder, Anxiety and Insomnia Using Dexmedetomidine Transdermal Compositions” (Teikoku Pharma USA, Inc., priority 2013, published 2015)

Assay: Solubility of dexmedetomidine in adhesives and solubility enhancers
Format: physicochemical

solubility of dexmedetomidine (in Duro-Tak 87-2979 (acid/hydroxyl functionalized acrylate adhesive)): less than 2%
solubility of dexmedetomidine (in Duro-Tak 387/87-2353 (acid functionalized acrylate adhesive)): 10-15%
solubility of dexmedetomidine (in hydroxyl functionalized acrylate polymer): less than 1%
solubility of dexmedetomidine (in lauryl lactate): 5 to 10%
solubility of dexmedetomidine (in levulinic acid): ~60%
solubility of dexmedetomidine (in oleic acid): ~40%
solubility of dexmedetomidine (in propylene glycolmonolaurate): 5 to 10%
Compound: Cc1cccc([C@H](C)c2cnc[nH]2)c1C [dexmedetomidine, Dexmedetomidine]
